According to patent US20260217767A1, “NOVEL A4B7 THIOETHER PEPTIDE DIMER ANTAGONISTS” (Protagonist Therapeutics, Inc., priority 2014, published 2026):
Where a SMILES comes first, the peptide text is derived from it.

Biological target: T1, rh integrin α4β7 (Homo sapiens, UniProt P13612+P26010)
T1 construct: purchased R&D Systems 5397-A30
T1 sequence (P13612 34-977 limits assumed): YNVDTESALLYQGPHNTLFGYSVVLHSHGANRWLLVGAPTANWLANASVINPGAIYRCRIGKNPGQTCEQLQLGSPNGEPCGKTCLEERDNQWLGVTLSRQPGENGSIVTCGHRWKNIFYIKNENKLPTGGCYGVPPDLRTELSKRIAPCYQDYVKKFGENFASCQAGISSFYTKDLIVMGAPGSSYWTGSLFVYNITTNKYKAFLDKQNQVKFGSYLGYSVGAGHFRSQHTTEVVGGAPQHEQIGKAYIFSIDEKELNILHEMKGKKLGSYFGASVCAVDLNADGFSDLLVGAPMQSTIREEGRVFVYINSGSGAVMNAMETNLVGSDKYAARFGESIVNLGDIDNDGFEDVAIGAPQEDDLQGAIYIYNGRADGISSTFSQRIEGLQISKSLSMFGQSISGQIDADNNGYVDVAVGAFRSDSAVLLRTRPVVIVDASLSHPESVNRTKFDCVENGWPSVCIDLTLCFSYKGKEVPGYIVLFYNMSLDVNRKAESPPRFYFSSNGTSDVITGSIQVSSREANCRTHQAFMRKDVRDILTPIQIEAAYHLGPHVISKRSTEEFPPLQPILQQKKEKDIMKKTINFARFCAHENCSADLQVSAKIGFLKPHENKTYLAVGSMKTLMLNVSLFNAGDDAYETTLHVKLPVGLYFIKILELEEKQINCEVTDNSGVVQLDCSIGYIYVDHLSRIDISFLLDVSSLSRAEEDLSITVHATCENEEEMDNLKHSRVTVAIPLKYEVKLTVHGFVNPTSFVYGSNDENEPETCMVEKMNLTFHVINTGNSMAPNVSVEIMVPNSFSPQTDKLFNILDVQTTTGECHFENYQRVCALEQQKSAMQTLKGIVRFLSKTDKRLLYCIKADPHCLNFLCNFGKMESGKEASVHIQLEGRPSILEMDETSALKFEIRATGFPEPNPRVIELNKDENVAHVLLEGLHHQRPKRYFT
T1 sequence (P26010 20-723 limits assumed): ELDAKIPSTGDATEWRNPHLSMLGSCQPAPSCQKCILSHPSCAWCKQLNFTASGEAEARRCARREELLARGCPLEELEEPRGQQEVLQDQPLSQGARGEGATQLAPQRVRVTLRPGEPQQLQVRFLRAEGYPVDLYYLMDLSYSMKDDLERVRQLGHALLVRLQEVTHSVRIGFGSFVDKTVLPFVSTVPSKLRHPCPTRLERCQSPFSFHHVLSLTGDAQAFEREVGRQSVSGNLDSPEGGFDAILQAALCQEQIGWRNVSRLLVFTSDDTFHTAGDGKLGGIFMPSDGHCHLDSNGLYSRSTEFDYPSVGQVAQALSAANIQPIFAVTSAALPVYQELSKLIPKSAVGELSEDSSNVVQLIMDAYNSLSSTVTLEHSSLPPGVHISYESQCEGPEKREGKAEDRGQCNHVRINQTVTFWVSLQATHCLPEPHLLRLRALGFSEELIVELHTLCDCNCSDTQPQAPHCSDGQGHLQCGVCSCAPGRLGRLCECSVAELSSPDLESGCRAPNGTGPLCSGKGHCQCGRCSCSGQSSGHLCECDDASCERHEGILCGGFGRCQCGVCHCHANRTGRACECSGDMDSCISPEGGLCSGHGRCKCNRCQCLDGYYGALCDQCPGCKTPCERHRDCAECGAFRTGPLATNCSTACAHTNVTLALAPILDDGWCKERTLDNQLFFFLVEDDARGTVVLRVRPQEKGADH
Experiment: α4β7-MAdCAM Competition ELISA
Assay type: binding
Settings: thioether monomer peptides, Table 6; read-out: ELISA A4B7
Description: α4β7-MAdCAM Competition ELISA A nickel coated plate (Pierce #15442) was coated with rh integrin α4β[…] Systems #5397-A30) at 800 ng/well and incubated at room temperature with shaking for 1 hr. The solution was then removed by shaking and blocked with assay buffer (50 mM Tris-HCl pH7.6, 150 mM NaCl, 1 mM MnCl2 or MgCl2, 0.05% Tween-20 and 0.5% BSA) at 250 ul/well. The plate was then incubated at room temperature for 1 hr. Each well was washed 3 times with wash buffer (50 mM Tris-HCl pH7.6, 100 mM NaCl, 1 mM MnCl2 or MgCl2, 0.05% Tween-20). To each well was added 25 ul of a serial dilution (3-fold dilutions in assay buffer) of peptides starting at 20 μM. 25 ul of recombinant human MAdCAM-1 (R&D Systems #6056-MC) was then added to each well at a fixed concentration 20 nM. The final starting peptide concentration was 10 μM, and the final MAdCAM-1 concentration was 10 nM. The plates were then incubated at room temperature for 1 hr to reach binding equilibrium. The wells were then washed three times with wash buffer. 50 ul of mouse anti-human IgG1-HRP (Invitrogen #A10648) diluted in 1:2000 in assay buffer was then added to each well. The wells were incubated at room temperature for 45 min with shaking. The wells were then washed 3 times with wash buffer. 100 ul of TMB were then added to each well and closely observe during development time. The reaction was stopped with 2N H2SO4 and absorbance was read at 450 nm.

SMILES	IC50 [µM]
CC(C)C[C@@H]1NC(=O)[C@H]([C@@H](C)O)NC(=O)[C@H](CC(=O)O)NC(=O)[C@H](CO)NC(=O)[C@H](CCCNC(=N)N)N(C)C(=O)c2ccccc2CSC(C)(C)[C@@H](C(=O)N[C@@H](Cc2c[nH]c3ccccc23)C(=O)N[C@H](CCC(=O)O)C(=O)N[C@@H](CCC(N)=O)C(N)=O)NC1=O [compound 103] (HELM PEPTIDE1{[meR].S.D.T.L.[Pen].W.[dE].Q.[am]}|CHEM1{[O=C(c1ccccc1C[*:2])[*:1]]}$PEPTIDE1,CHEM1,1:R1-1:R1|PEPTIDE1,CHEM1,6:R3-1:R2$$$V2.0)	< 0.025
CC(C)C[C@H](NC(=O)[C@@H](CCC(=O)O)NC(=O)[C@H](Cc1c[nH]c2ccccc12)NC(=O)[C@H]1NC(=O)[C@H](CC(C)C)NC(=O)[C@H]([C@@H](C)O)NC(=O)[C@H](CC(=O)O)NC(=O)[C@H](CO)NC(=O)[C@H](CCCNC(=N)N)N(C)C(=O)c2ccccc2CSC1(C)C)C(N)=O [compound 99] (HELM PEPTIDE1{[meR].S.D.T.L.[Pen].W.[dE].L.[am]}|CHEM1{[O=C(c1ccccc1C[*:2])[*:1]]}$PEPTIDE1,CHEM1,1:R1-1:R1|PEPTIDE1,CHEM1,6:R3-1:R2$$$V2.0)	< 0.025
CC(C)C[C@@H]1NC(=O)[C@H]([C@@H](C)O)NC(=O)[C@H](CC(=O)O)NC(=O)[C@H](CO)NC(=O)[C@H](CCCNC(=N)N)N(C)C(=O)c2ccccc2CSC(C)(C)[C@@H](C(=O)N[C@@H](Cc2c[nH]c3ccccc23)C(=O)N[C@H](CCC(=O)O)C(=O)N[C@H](Cc2c[nH]cn2)C(N)=O)NC1=O [compound 109] (HELM PEPTIDE1{[meR].S.D.T.L.[Pen].W.[dE].[dH].[am]}|CHEM1{[O=C(c1ccccc1C[*:2])[*:1]]}$PEPTIDE1,CHEM1,1:R1-1:R1|PEPTIDE1,CHEM1,6:R3-1:R2$$$V2.0)	< 0.025
CC(C)C[C@@H]1NC(=O)[C@H]([C@@H](C)O)NC(=O)[C@H](CC(=O)O)NC(=O)[C@H](CO)NC(=O)[C@H](CCCNC(=N)N)N(C)C(=O)c2ccccc2CSC(C)(C)[C@@H](C(=O)N[C@@H](Cc2ccc(O)cc2)C(=O)N[C@H](CCC(=O)O)C(=O)N[C@H](CCCCN)C(N)=O)NC1=O [compound 79] (HELM PEPTIDE1{[meR].S.D.T.L.[Pen].Y.[dE].[dK].[am]}|CHEM1{[O=C(c1ccccc1C[*:2])[*:1]]}$PEPTIDE1,CHEM1,1:R1-1:R1|PEPTIDE1,CHEM1,6:R3-1:R2$$$V2.0)	< 0.025
CCCC[C@@H]1NC(=O)[C@H]([C@@H](C)O)NC(=O)[C@H](CC(=O)O)NC(=O)[C@H](CO)NC(=O)[C@H](CCCNC(=N)N)N(C)C(=O)c2ccccc2CSC(C)(C)[C@@H](C(=O)N[C@@H](Cc2c[nH]c3ccccc23)C(=O)N[C@@H](CCC(=O)O)C(=O)N[C@H](CCCCNC(C)=O)C(N)=O)NC1=O [compound 86] (HELM PEPTIDE1{[meR].S.D.T.[Nle].[Pen].W.E.[dK].[am]}|PEPTIDE2{[ac]}|CHEM1{[O=C(c1ccccc1C[*:2])[*:1]]}$PEPTIDE1,PEPTIDE2,9:R3-1:R2|PEPTIDE1,CHEM1,1:R1-1:R1|PEPTIDE1,CHEM1,6:R3-1:R2$$$V2.0)	< 0.025
COC(=O)CC[C@H](NC(=O)[C@H](Cc1c[nH]c2ccccc12)NC(=O)[C@H]1NC(=O)[C@H](CC(C)C)NC(=O)[C@H]([C@@H](C)O)NC(=O)[C@H](CC(=O)O)NC(=O)[C@H](CO)NC(=O)[C@H](CCCNC(=N)N)N(C)C(=O)c2ccccc2CSC1(C)C)C(=O)N[C@H](CCCCN)C(N)=O [compound 115] (HELM PEPTIDE1{[meR].S.D.T.L.[Pen].W.E.[dK].[am]}|CHEM1{[CO[*:1]]}|CHEM2{[O=C(c1ccccc1C[*:2])[*:1]]}$PEPTIDE1,CHEM1,8:R3-1:R1|PEPTIDE1,CHEM2,1:R1-1:R1|PEPTIDE1,CHEM2,6:R3-1:R2$$$V2.0)	< 0.025
CC(C)C[C@@H]1NC(=O)[C@H]([C@@H](C)O)NC(=O)[C@H](CC(=O)O)NC(=O)[C@H](CO)NC(=O)[C@H](CCCNC(=N)N)N(C)C(=O)C(C)(C)SC[C@@H](C(=O)N[C@@H](Cc2c[nH]c3ccccc23)C(=O)N[C@H](CCCCN)C(N)=O)NC1=O [compound 52]	> 1
CC(=O)NCCCC[C@H](C(N)=O)N(C)C(=O)[C@H](CCC(=O)O)NC(=O)[C@H](Cc1c[nH]c2ccccc12)NC(=O)[C@H]1NC(=O)[C@H](CC(C)C)NC(=O)[C@H]([C@@H](C)O)NC(=O)[C@H](CC(=O)O)NC(=O)[C@H](CO)NC(=O)[C@H](CCCNC(=N)N)N(C)C(=O)c2ccccc2CSC1(C)C [compound 84] (HELM PEPTIDE1{[meR].S.D.T.L.[Pen].W.E.[CN([C@H](CCCCN[*:3])C(=O)[*:2])[*:1]].[am]}|PEPTIDE2{[ac]}|CHEM1{[O=C(c1ccccc1C[*:2])[*:1]]}$PEPTIDE1,PEPTIDE2,9:R3-1:R2|PEPTIDE1,CHEM1,1:R1-1:R1|PEPTIDE1,CHEM1,6:R3-1:R2$$$V2.0)	< 0.025
CC(=O)NCCCC[C@@H](C(N)=O)N(C)C(=O)[C@H](Cc1ccc(O)cc1)NC(=O)[C@H](Cc1c[nH]c2ccccc12)NC(=O)[C@H]1NC(=O)[C@H](CC(C)C)NC(=O)[C@H]([C@@H](C)O)NC(=O)[C@H](CC(=O)O)NC(=O)[C@H](CO)NC(=O)[C@H](CCCNC(=N)N)N(C)C(=O)c2ccccc2CSC1(C)C [compound 85] (HELM PEPTIDE1{[meR].S.D.T.L.[Pen].W.Y.[CN([C@@H](CCCCN[*:3])C(=O)[*:2])[*:1]].[am]}|PEPTIDE2{[ac]}|CHEM1{[O=C(c1ccccc1C[*:2])[*:1]]}$PEPTIDE1,PEPTIDE2,9:R3-1:R2|PEPTIDE1,CHEM1,1:R1-1:R1|PEPTIDE1,CHEM1,6:R3-1:R2$$$V2.0)	< 0.025
CC(=O)NCCCC[C@@H](NC(=O)[C@H](CCC(=O)O)NC(=O)[C@H](Cc1ccc(O)cc1)NC(=O)[C@H]1NC(=O)[C@H](CC(C)C)NC(=O)[C@H]([C@@H](C)O)NC(=O)[C@H](CC(=O)O)NC(=O)[C@H](CO)NC(=O)[C@H](CCCNC(=N)N)N(C)C(=O)c2ccccc2CSC1(C)C)C(N)=O [compound 90] (HELM PEPTIDE1{[meR].S.D.T.L.[Pen].Y.E.[dK].[am]}|PEPTIDE2{[ac]}|CHEM1{[O=C(c1ccccc1C[*:2])[*:1]]}$PEPTIDE1,PEPTIDE2,9:R3-1:R2|PEPTIDE1,CHEM1,1:R1-1:R1|PEPTIDE1,CHEM1,6:R3-1:R2$$$V2.0)	< 0.025
CC(=O)NCCCC[C@@H](NC(=O)C[C@H](CCC(=O)O)NC(=O)[C@H](Cc1c[nH]c2ccccc12)NC(=O)[C@H]1NC(=O)[C@H](CC(C)C)NC(=O)[C@H]([C@@H](C)O)NC(=O)[C@H](CC(=O)O)NC(=O)[C@H](CO)NC(=O)[C@H](CCCNC(=N)N)N(C)C(=O)c2ccccc2CSC1(C)C)C(N)=O [compound 83] (HELM PEPTIDE1{[meR].S.D.T.L.[Pen].W.[O=C(O)CC[C@@H](CC(=O)[*:2])N[*:1]].[dK].[am]}|PEPTIDE2{[ac]}|CHEM1{[O=C(c1ccccc1C[*:2])[*:1]]}$PEPTIDE1,PEPTIDE2,9:R3-1:R2|PEPTIDE1,CHEM1,1:R1-1:R1|PEPTIDE1,CHEM1,6:R3-1:R2$$$V2.0)	< 0.025
